These results are taken from paper PMC6921279 (Frontiers in Endocrinology, 2019).

Test [1] concerns EGF-stimulated ERK1/2 phosphorylation. The test can be described thus: Modulation of EGF-stimulated ERK1/2 phosphorylation in COS-7 cells. The class given is cell-based. As to conditions: wortmannin 100 nM, 30 min pretreatment; 10 ng/ml EGF, 10 min. The procedure: (§1) COS-7 cells (from the American Type Culture Collection) were cultured at 37°C in a humidified atmosphere of 95% air, 5% CO2, in DMEM supplemented with 10% FBS, 100 μg/ml streptomycin, and 100 units/ml penicillin (COS-7 growth medium). Transient transfections were performed using LipofectAMINE (Life Technologies: Gaithersburg, MD) as described previously ([27]). Cells were seeded at 8 × 10^5 cells/10-cm dish in COS-7 medium and cultured for 3 days before transfection. COS-7 cells were transfected in 5 ml/dish OptiMEM containing 10 μg/ml LipofectAMINE with empty vector, pcDNA3 encoding the HA-CRF1R or the HA-CRF1R-Δ386 mutant. […] After replacing the transfection medium with fresh growth medium, transfected COS-7 cells were cultured for 1 day. […]
(§2) The protocols for measuring total and phosphorylated ERK1/2, c-Src, PYK2, Akt, and EGFR have been previously published ([28], [29]). […] The labeled bands were quantified using the Quantity One 4.6.3 software program (Bio-Rad).
Figure 3 Involvement of EGFR transactivation in CRF-stimulated ERK1/2 phosphorylation. […] Total cell lysates were separated by SDS-PAGE and analyzed by immunoblotting with anti-p-ERK1/2 Thr^202/Tyr^204 (A–D) or anti-p-EGFR Tyr^1068 (E), as described in Materials and Methods. ERK1/2 and EGFR phosphorylation were quantitated by densitometry, and mean values were plotted from three to five independent experiments. […]

Test [2] concerns EGF-stimulated Akt phosphorylation. Briefly: Modulation of EGF-stimulated Akt phosphorylation in COS-7 cells. Format: cell-based. The settings on record: wortmannin 100 nM, 30 min pretreatment; 10 ng/ml EGF, 10 min. The procedure: as §1, §2
Figure 8 Involvement of the PI3K pathway in CRF-stimulated ERK1/2 phosphorylation. […] Total cell lysates were separated by SDS-PAGE and analyzed by immunoblotting with anti-p-Akt Ser^473 (A) or anti-p-ERK1/2 Thr^202/Tyr^204 (A–C), as described in Materials and Methods. Akt and ERK1/2 phosphorylation were quantitated by densitometry, and mean values were plotted from three to five independent experiments. […]

SMILES strings stand for the structures.

As for `COC[C@H]1OC(=O)c2coc3c2[C@@]1(C)C1=C(C3=O)[C@@H]2CCC(=O)[C@@]2(C)C[C@H]1OC(C)=O` [wortmannin], in test [1], the “effect on EGF-stimulated ERK1/2 phosphorylation” value was “unable to inhibit the effect of EGF”. Moreover, in test [2], the “effect on EGF-stimulated Akt phosphorylation” value is given as “abolished the stimulatory action of EGF on Akt”.
